Results as given in ChEMBL document CHEMBL1201862, “PubChem BioAssay data set” (2004).
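Compound exposure: 48 hours, 5 concentrations, 96-well plates. The concentration for 50% growth inhibition is given as GI50.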 Activity calls are given as the source filed them. Cut-off read from the data, not from the text of the source: active = GI50 up to about 1.1 µM and inactive = higher.

How the values were obtained:
Test in all cases: DTP human tumour cell line panel, 48 h
CCRF-CEM = tested on: CCRF-CEM
MDA-MB-231 = tested on: MDA-MB-231
EKVX = tested on: EKVX
SN12C = tested on: SN12C
MDA-MB-435 = tested on: MDA-MB-435
MOLT-4 = tested on: MOLT-4
U-251 = tested on: U-251
SR = tested on: SR
IGROV-1 = tested on: IGROV-1
T47D = tested on: T47D
NCI-H23 = tested on: NCI-H23
SF-295 = tested on: SF-295
HT-29 = tested on: HT-29
M14 = tested on: M14
NCI/ADR-RES = tested on: NCI/ADR-RES
OVCAR-5 = tested on: OVCAR-5
TK-10 = tested on: TK-10
HCC 2998 = tested on: HCC 2998
HCT-116 = tested on: HCT-116
HL-60 = tested on: HL-60

Compound	GI50 (CCRF-CEM)	GI50 (MDA-MB-231)	GI50 (EKVX)	GI50 (SN12C)	GI50 (MDA-MB-435)	GI50 (MOLT-4)	GI50 (U-251)	GI50 (SR)	GI50 (IGROV-1)	GI50 (T47D)	GI50 (NCI-H23)	GI50 (SF-295)	GI50 (HT-29)	GI50 (M14)	GI50 (NCI/ADR-RES)	GI50 (OVCAR-5)	GI50 (TK-10)	GI50 (HCC 2998)	GI50 (HCT-116)	GI50 (HL-60)
O=C(CCCN1CCC2(CC1)CC(=O)N(N1CCOCC1)C2=O)c1ccccc1	> 100 µM (inactive)	> 100 µM (inactive)	> 100 µM (inactive)	> 100 µM (inactive)	19.1 µM (inactive)	> 100 µM (inactive)	> 100 µM (inactive)	> 100 µM (inactive)	> 100 µM (inactive)	> 100 µM (inactive)	> 100 µM (inactive)	> 100 µM (inactive)	> 100 µM (inactive)	> 100 µM (inactive)	> 100 µM (inactive)	> 100 µM (inactive)	> 100 µM (inactive)	> 100 µM (inactive)	> 100 µM (inactive)	> 100 µM (inactive)
CCOC(=O)c1cccc(/N=N/Nc2cccc(C(=O)OCC)c2)c1	> 100 µM (inactive)	17.8 µM (inactive)	57.8 µM (inactive)	30.1 µM (inactive)	16.4 µM (inactive)	> 100 µM (inactive)	20.1 µM (inactive)	1.09 µM (active)	38.9 µM (inactive)	> 100 µM (inactive)	43.2 µM (inactive)	15.6 µM (inactive)	52.8 µM (inactive)	> 100 µM (inactive)	56.9 µM (inactive)	78.7 µM (inactive)	27.5 µM (inactive)	> 100 µM (inactive)	31.9 µM (inactive)	> 100 µM (inactive)
COc1cc(OC)c2nc3occc3c(OC)c2c1	> 100 µM (inactive)	> 100 µM (inactive)	64.7 µM (inactive)	71.1 µM (inactive)	> 100 µM (inactive)	61.9 µM (inactive)	> 100 µM (inactive)	55.7 µM (inactive)	> 100 µM (inactive)	61.2 µM (inactive)	> 100 µM (inactive)	62.8 µM (inactive)	> 100 µM (inactive)	> 100 µM (inactive)	> 100 µM (inactive)	> 100 µM (inactive)	> 100 µM (inactive)	41.6 µM (inactive)	76 µM (inactive)	94.8 µM (inactive)
N=C(N)N/N=C(\c1ccc(F)cc1)c1ccc(C(F)(F)F)cc1	0.329 µM (active)	0.33 µM (active)	0.505 µM (active)	0.64 µM (active)	0.075 µM (active)	0.358 µM (active)	0.473 µM (active)	0.284 µM (active)	0.284 µM (active)	2.08 µM (inactive)	0.382 µM (active)	0.264 µM (active)	0.412 µM (active)	0.298 µM (active)	0.344 µM (active)	0.497 µM (active)	1.66 µM (inactive)	0.542 µM (active)	0.104 µM (active)	0.213 µM (active)
CS(=O)(=O)c1cc(=O)c2ccccc2s1	1.53 µM (inactive)	15 µM (inactive)	9.06 µM (inactive)	9.53 µM (inactive)	11 µM (inactive)	1.72 µM (inactive)	19.7 µM (inactive)	2.07 µM (inactive)	18.5 µM (inactive)	3.08 µM (inactive)	9.06 µM (inactive)	13.7 µM (inactive)	5.01 µM (inactive)	1.85 µM (inactive)	18 µM (inactive)	11.8 µM (inactive)	7.28 µM (inactive)	14 µM (inactive)	1.96 µM (inactive)	1.84 µM (inactive)
COc1cc(C)cc2c(-c3c(O)cc(O)c4c3C[C@H](C)N[C@H]4C)cc(-c3cc(-c4c(O)cc(O)c5c4C[C@H](C)N[C@H]5C)c4cc(C)cc(OC)c4c3O)c(O)c12	> 100 µM (inactive)	> 100 µM (inactive)	> 100 µM (inactive)	> 100 µM (inactive)	54.3 µM (inactive)	> 100 µM (inactive)	> 100 µM (inactive)	> 100 µM (inactive)	> 100 µM (inactive)	63.8 µM (inactive)	> 100 µM (inactive)	66.4 µM (inactive)	36 µM (inactive)	> 100 µM (inactive)	> 100 µM (inactive)	21.4 µM (inactive)	> 100 µM (inactive)	> 100 µM (inactive)	54.1 µM (inactive)	> 100 µM (inactive)
COc1cc2c(cc1OC)C(=O)/C(=C/c1ccccc1)C2	27.5 µM (inactive)	> 100 µM (inactive)	> 100 µM (inactive)	> 100 µM (inactive)	> 87.7 µM (inactive)	16.3 µM (inactive)	> 100 µM (inactive)	29.4 µM (inactive)	> 67 µM (inactive)	63.5 µM (inactive)	> 74.8 µM (inactive)	76.9 µM (inactive)	45.3 µM (inactive)	> 62.5 µM (inactive)	> 66.2 µM (inactive)	> 100 µM (inactive)	> 100 µM (inactive)	78.3 µM (inactive)	48 µM (inactive)	16.9 µM (inactive)
N#C/C(=C\c1ccc(F)cc1)c1nc2ccccc2c(=O)[nH]1	> 100 µM (inactive)	48.3 µM (inactive)	> 100 µM (inactive)	> 100 µM (inactive)	> 100 µM (inactive)	26.1 µM (inactive)	70.6 µM (inactive)	> 100 µM (inactive)	> 100 µM (inactive)	> 100 µM (inactive)		> 100 µM (inactive)	> 100 µM (inactive)	> 100 µM (inactive)	> 100 µM (inactive)	> 100 µM (inactive)	> 100 µM (inactive)	> 100 µM (inactive)	> 100 µM (inactive)	> 100 µM (inactive)
NC(=O)c1nnc2cc(F)c(F)cc2c1N	> 100 µM (inactive)	44.1 µM (inactive)	44.7 µM (inactive)	84.9 µM (inactive)	97.9 µM (inactive)	> 100 µM (inactive)	22.3 µM (inactive)	> 100 µM (inactive)	47.5 µM (inactive)	40.7 µM (inactive)	23.3 µM (inactive)	27.3 µM (inactive)	> 100 µM (inactive)	67.5 µM (inactive)	27.6 µM (inactive)	57.3 µM (inactive)	35.2 µM (inactive)	> 100 µM (inactive)	72.1 µM (inactive)	> 100 µM (inactive)
OB(O)c1ccccc1C#Cc1ccccc1B(O)O	20.1 µM (inactive)	20.8 µM (inactive)	16.9 µM (inactive)	23.6 µM (inactive)	19.7 µM (inactive)	40.5 µM (inactive)	19.2 µM (inactive)	19.5 µM (inactive)	3.14 µM (inactive)	2.98 µM (inactive)	24 µM (inactive)	22.9 µM (inactive)	42.7 µM (inactive)	22.7 µM (inactive)	25.5 µM (inactive)	27.4 µM (inactive)	17.1 µM (inactive)	17.7 µM (inactive)	18.1 µM (inactive)	21.4 µM (inactive)
O=C1/C(=C/c2ccccc2)N=C(c2ccccc2)N1n1c(-c2ccccc2)nc2ccccc2c1=O	32.8 µM (inactive)	> 100 µM (inactive)	48.6 µM (inactive)	> 100 µM (inactive)	87.9 µM (inactive)	30.6 µM (inactive)	41.8 µM (inactive)	31 µM (inactive)	> 100 µM (inactive)	> 100 µM (inactive)	56.1 µM (inactive)	91 µM (inactive)	70.5 µM (inactive)	> 100 µM (inactive)	63.8 µM (inactive)	> 100 µM (inactive)	> 100 µM (inactive)	> 100 µM (inactive)	53 µM (inactive)	33.3 µM (inactive)
COC(=O)C1=CC2CCCC1(O)C(C(C)=O)C2 (centres undefined)	21.1 µM (inactive)	46.6 µM (inactive)	52.7 µM (inactive)	> 100 µM (inactive)	> 100 µM (inactive)	21.1 µM (inactive)	63.2 µM (inactive)	31.3 µM (inactive)	15.4 µM (inactive)	27.4 µM (inactive)	> 77.1 µM (inactive)	> 67.5 µM (inactive)	> 100 µM (inactive)	> 100 µM (inactive)	> 63.2 µM (inactive)	> 100 µM (inactive)	> 100 µM (inactive)	> 100 µM (inactive)	62.1 µM (inactive)	24.2 µM (inactive)
O=c1[nH]/c(=C/c2ccc(OCc3ccccc3)cn2)c(=O)[nH]/c1=C/c1ccc(O)cc1	0.0454 µM (active)	1.6 µM (inactive)	2.71 µM (inactive)	1.04 µM (active)	0.109 µM (active)	0.301 µM (active)	0.719 µM (active)	1.4 µM (inactive)	0.764 µM (active)	1.76 µM (inactive)	1.16 µM (inactive)	8.85 µM (inactive)	1.48 µM (inactive)	0.94 µM (active)	0.774 µM (active)	8.32 µM (inactive)	0.931 µM (active)	0.991 µM (active)	1.08 µM (active)	0.298 µM (active)
Oc1ccc2c3c1OC1c4[nH]ncc4C[C@H]4[C@@H](C2)N(CC2CC2)CC[C@]314 (some centres undefined)	> 100 µM (inactive)	> 100 µM (inactive)	> 100 µM (inactive)	> 100 µM (inactive)	> 100 µM (inactive)	> 100 µM (inactive)	> 100 µM (inactive)	> 100 µM (inactive)	> 100 µM (inactive)	> 100 µM (inactive)	> 100 µM (inactive)	> 100 µM (inactive)	> 100 µM (inactive)	> 100 µM (inactive)	> 100 µM (inactive)	> 100 µM (inactive)	> 100 µM (inactive)	> 100 µM (inactive)	> 100 µM (inactive)	> 100 µM (inactive)
